Experimental data reported in ChEMBL document CHEMBL1148480, “Structure-activity studies of orexin a and orexin B at the human orexin 1 and orexin 2 receptors led to orexin 2 receptor selective and orexin 1 receptor preferring ligands” (J Med Chem, 2004).
pEC50: −log10 of the molar value. Residues, ends and D or L forms follow the SMILES beside them.

Legend:
[1] = target: T1, Orexin/Hypocretin receptor type 1 (Homo sapiens, UniProt O43613); assay: Effective agonist concentration to human orexin receptor type 1 determined using the Xlfit program; format: functional
T1 sequence (O43613 whole entry): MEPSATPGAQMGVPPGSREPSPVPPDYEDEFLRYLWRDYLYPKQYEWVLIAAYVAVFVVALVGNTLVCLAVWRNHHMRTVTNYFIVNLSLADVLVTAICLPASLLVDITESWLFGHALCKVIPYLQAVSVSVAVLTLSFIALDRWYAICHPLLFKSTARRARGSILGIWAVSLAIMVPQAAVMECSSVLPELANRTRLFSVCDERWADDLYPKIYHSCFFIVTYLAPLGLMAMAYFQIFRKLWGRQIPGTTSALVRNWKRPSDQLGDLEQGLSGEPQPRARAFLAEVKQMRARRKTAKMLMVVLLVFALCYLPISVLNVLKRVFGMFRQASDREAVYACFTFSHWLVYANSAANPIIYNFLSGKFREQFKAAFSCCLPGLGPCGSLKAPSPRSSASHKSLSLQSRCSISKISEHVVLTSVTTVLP

Orexin receptor type 2 = target: T2, Orexin receptor type 2 (Homo sapiens, UniProt O43614); assay: Effective agonist concentration to the human Orexin receptor type 2 was determined using the Xlfit program; format: functional
T2 sequence (O43614 whole entry): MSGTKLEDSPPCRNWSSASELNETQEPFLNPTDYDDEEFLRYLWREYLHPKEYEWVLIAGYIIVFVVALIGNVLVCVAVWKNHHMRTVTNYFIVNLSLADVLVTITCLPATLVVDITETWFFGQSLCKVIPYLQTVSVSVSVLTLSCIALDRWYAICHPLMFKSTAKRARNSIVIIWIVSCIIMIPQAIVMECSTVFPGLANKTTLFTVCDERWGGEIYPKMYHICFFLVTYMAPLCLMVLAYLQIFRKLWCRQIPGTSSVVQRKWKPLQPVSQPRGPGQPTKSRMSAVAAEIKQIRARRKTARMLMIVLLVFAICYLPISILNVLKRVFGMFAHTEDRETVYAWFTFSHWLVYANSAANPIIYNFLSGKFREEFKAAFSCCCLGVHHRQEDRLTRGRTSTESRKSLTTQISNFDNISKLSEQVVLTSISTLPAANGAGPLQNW

pEC50 [1]	pEC50 (Orexin receptor type 2)	SMILES
< 3.00	< 3.00	CSCC[C@H](NC(=O)[C@@H](NC(=O)[C@H](CC(C)C)NC(=O)[C@@H]1CCCN1C(=O)CNC(=O)[C@H](C)NC(=O)[C@H](C)NC(=O)[C@H](Cc1cnc[nH]1)NC(=O)[C@H](CC(N)=O)NC(=O)CNC(=O)[C@H](CO)NC(=O)[C@H](C)NC(=O)[C@H](CCC(N)=O)NC(=O)[C@H](CC(C)C)NC(=O)[C@H](CC(C)C)NC(=O)[C@H](CCCNC(=N)N)NC(=O)[C@H](CCC(N)=O)NC(=O)[C@H](CC(C)C)NC(=O)[C@H](CCCNC(=N)N)NC(=O)CNC(=O)[C@H](CCC(N)=O)NC(=O)[C@H](CC(C)C)NC(=O)CN)[C@@H](C)O)C(=O)O (H-GLQGRLQRLLQASGNHAAGPLTM-OH)
< 3.00	< 3.00	CC(C)C[C@H](NC(=O)CNC(=O)[C@@H]1CCCN1C(=O)[C@@H]1CCCN1C(=O)CNC(=O)[C@H](CO)NC(=O)[C@@H](N)CCCNC(=N)N)C(=O)N[C@@H](CCC(N)=O)C(=O)NCC(=O)N[C@@H](CCCNC(=N)N)C(=O)N[C@@H](CC(C)C)C(=O)N[C@@H](CCC(N)=O)C(=O)N[C@@H](CCCNC(=N)N)C(=O)N[C@@H](CC(C)C)C(=O)N[C@@H](CC(C)C)C(=O)N[C@@H](CCC(N)=O)C(=O)N[C@@H](C)C(=O)N[C@@H](CO)C(=O)NCC(=O)N[C@@H](CC(N)=O)C(=O)N[C@@H](Cc1cnc[nH]1)C(=O)O (H-RSGPPGLQGRLQRLLQASGNH-OH)
< 3.00	5.44	CC[C@H](C)[C@H](NC(=O)CNC(=O)[C@@H]1CCCN1C(=O)[C@H](C)NC(=O)[C@H](Cc1cnc[nH]1)NC(=O)[C@H](CC(N)=O)NC(=O)CNC(=O)[C@H](CO)NC(=O)[C@H](C)NC(=O)[C@H](CCC(N)=O)NC(=O)[C@H](CC(C)C)NC(=O)[C@H](CC(C)C)NC(=O)[C@H](CCCNC(=N)N)NC(=O)[C@H](CCC(N)=O)NC(=O)[C@H](CC(C)C)NC(=O)[C@H](CCCNC(=N)N)NC(=O)CNC(=O)[C@H](CCC(N)=O)NC(=O)[C@H](CC(C)C)NC(=O)CN)C(=O)N[C@@H](CC(C)C)C(=O)N[C@H](C(=O)N[C@@H](CCSC)C(=O)O)[C@@H](C)O (H-GLQGRLQRLLQASGNHAPGILTM-OH)
6.17	6.54	CC[C@H](C)[C@H](NC(=O)CNC(=O)[C@H](C)NC(=O)[C@H](C)NC(=O)[C@H](Cc1cnc[nH]1)NC(=O)[C@H](CC(N)=O)NC(=O)CNC(=O)[C@H](C)NC(=O)CNC(=O)[C@H](Cc1cnc[nH]1)NC(=O)[C@H](CC(C)C)NC(=O)[C@H](CC(C)C)NC(=O)[C@H](CCC(=O)O)NC(=O)[C@H](Cc1ccc(O)cc1)NC(=O)[C@H](CC(C)C)NC(=O)[C@H](CCCNC(=N)N)NC(=O)[C@H](CS)NC(=O)[C@H](CO)NC(=O)[C@H](CS)NC(=O)[C@@H](NC(=O)[C@H](CCCCN)NC(=O)[C@H](CCC(N)=O)NC(=O)[C@@H](N)CCCNC(=N)N)[C@@H](C)O)C(=O)N[C@@H](CC(C)C)C(=O)N[C@H](C(=O)N[C@@H](CC(C)C)C(=O)O)[C@@H](C)O (H-RQKTCSCRLYELLHGAGNHAAGILTL-OH)
< 3.00	5.57	CC[C@H](C)[C@H](NC(=O)CNC(=O)[C@H](C)NC(=O)[C@H](C)NC(=O)[C@H](Cc1cnc[nH]1)NC(=O)[C@H](CC(N)=O)NC(=O)CNC(=O)[C@H](CO)NC(=O)[C@H](C)NC(=O)[C@H](CCC(N)=O)NC(=O)[C@H](CC(C)C)NC(=O)[C@H](CC(C)C)NC(=O)[C@H](CCCNC(=N)N)NC(=O)[C@H](CCC(N)=O)NC(=O)[C@H](CC(C)C)NC(=O)[C@H](CCCNC(=N)N)NC(=O)CNC(=O)[C@H](CCC(N)=O)NC(=O)[C@H](CC(C)C)NC(=O)CN)C(=O)N[C@@H](CC(C)C)C(=O)N1CCC[C@H]1C(=O)N[C@@H](CCSC)C(=O)O (H-GLQGRLQRLLQASGNHAAGILPM-OH)
< 3.00	5.63	CC[C@H](C)[C@H](NC(=O)CNC(=O)[C@H](C)NC(=O)[C@H](C)NC(=O)[C@H](Cc1cnc[nH]1)NC(=O)[C@H](CC(N)=O)NC(=O)CNC(=O)[C@H](CO)NC(=O)[C@H](C)NC(=O)[C@H](CCC(N)=O)NC(=O)[C@H](C)NC(=O)[C@H](CC(C)C)NC(=O)[C@H](CCCNC(=N)N)NC(=O)[C@H](CCC(N)=O)NC(=O)[C@H](CC(C)C)NC(=O)[C@H](CCCNC(=N)N)NC(=O)CNC(=O)[C@H](CCC(N)=O)NC(=O)[C@H](CC(C)C)NC(=O)CN)C(=O)N[C@@H](CC(C)C)C(=O)N[C@H](C(=O)N[C@@H](CCSC)C(=O)O)[C@@H](C)O (H-GLQGRLQRLAQASGNHAAGILTM-OH)
5.66	6.49	CC[C@H](C)[C@H](NC(=O)CNC(=O)[C@H](C)NC(=O)[C@H](C)NC(=O)[C@H](Cc1cnc[nH]1)NC(=O)[C@H](C)NC(=O)CNC(=O)[C@H](CO)NC(=O)[C@H](C)NC(=O)[C@H](CCC(N)=O)NC(=O)[C@H](CC(C)C)NC(=O)[C@H](CC(C)C)NC(=O)[C@H](CCCNC(=N)N)NC(=O)[C@H](CCC(N)=O)NC(=O)[C@H](CC(C)C)NC(=O)[C@H](CCCNC(=N)N)NC(=O)CNC(=O)[C@H](CCC(N)=O)NC(=O)[C@H](CC(C)C)NC(=O)CN)C(=O)N[C@@H](CC(C)C)C(=O)N[C@H](C(=O)N[C@@H](CCSC)C(=O)O)[C@@H](C)O (stereo in doubt; form 2)

More lines, now with the values behind:

SMILES	pEC50 [1]	pEC50 (Orexin receptor type 2)
CC(C)C[C@H](NC(=O)CNC(=O)[C@@H]1CCCN1C(=O)[C@@H]1CCCN1C(=O)CNC(=O)[C@H](CO)NC(=O)[C@@H](N)CCCN=C(N)N)C(=O)N[C@@H](CCC(N)=O)C(=O)NCC(=O)N[C@@H](CCCN=C(N)N)C(=O)O (H-RSGPPGLQGR-OH)	< 3.00	< 3.00
CC[C@H](C)[C@H](NC(=O)CNC(=O)[C@H](C)NC(=O)[C@H](C)NC(=O)[C@H](Cc1cnc[nH]1)NC(=O)[C@H](CC(N)=O)NC(=O)CNC(=O)[C@H](C)NC(=O)CNC(=O)[C@H](Cc1cnc[nH]1)NC(=O)[C@H](CC(C)C)NC(=O)[C@H](CC(C)C)NC(=O)[C@H](CCC(=O)O)NC(=O)[C@H](Cc1ccc(O)cc1)NC(=O)[C@H](CC(C)C)NC(=O)[C@H](CCCNC(=N)N)NC(=O)[C@H](CSSC[C@H](NC(=O)[C@@H](N)CO)C(=O)N[C@@H](CCCNC(=N)N)C(=O)N[C@@H](CC(C)C)C(=O)N[C@@H](Cc1ccc(O)cc1)C(=O)N[C@@H](CCC(=O)O)C(=O)N[C@@H](CC(C)C)C(=O)N[C@@H](CC(C)C)C(=O)N[C@@H](Cc1cnc[nH]1)C(=O)NCC(=O)N[C@@H](C)C(=O)NCC(=O)N[C@@H](CC(N)=O)C(=O)N[C@@H](Cc1cnc[nH]1)C(=O)N[C@@H](C)C(=O)N[C@@H](C)C(=O)NCC(=O)N[C@H](C(=O)N[C@@H](CC(C)C)C(=O)N[C@H](C(=O)N[C@@H](CC(C)C)C(=O)O)[C@@H](C)O)[C@@H](C)CC)NC(=O)[C@@H](N)CO)C(=O)N[C@@H](CC(C)C)C(=O)N[C@H](C(=O)N[C@@H](CC(C)C)C(=O)O)[C@@H](C)O	6.16	6.62
CC[C@H](C)[C@H](NC(=O)CNC(=O)[C@H](C)NC(=O)[C@H](C)NC(=O)[C@H](Cc1c[nH]cn1)NC(=O)[C@H](CC(N)=O)NC(=O)CNC(=O)[C@H](C)N)C(=O)N[C@@H](CC(C)C)C(=O)N[C@H](C(=O)N[C@@H](CC(C)C)C(=O)O)[C@@H](C)O (H-AGNHAAGILTL-OH)	< 3.00	< 3.00
CC(C)C[C@H](NC(=O)[C@@H]1CCCN1C(=O)[C@@H]1CCC(=O)N1)C(=O)N1CCC[C@H]1C(=O)N[C@@H](CC(=O)O)C(=O)N[C@@H](CS)C(=O)N[C@@H](CS)C(=O)N[C@@H](CCCN=C(N)N)C(=O)N[C@@H](CCC(N)=O)C(=O)N[C@@H](CCCCN)C(=O)N[C@H](C(=O)N[C@@H](CS)C(=O)N[C@@H](CO)C(=O)O)[C@@H](C)O	< 3.00	< 3.00
CC[C@H](C)[C@H](NC(=O)CNC(=O)[C@H](C)NC(=O)[C@H](C)NC(=O)[C@H](Cc1cnc[nH]1)NC(=O)[C@H](CC(N)=O)NC(=O)CNC(=O)[C@H](C)NC(=O)CNC(=O)[C@H](Cc1cnc[nH]1)NC(=O)[C@H](CC(C)C)NC(=O)[C@H](CC(C)C)NC(=O)[C@H](CCC(=O)O)NC(=O)[C@H](Cc1ccc(O)cc1)NC(=O)[C@H](CC(C)C)NC(=O)[C@@H](N)CCCNC(=N)N)C(=O)N[C@@H](CC(C)C)C(=O)N[C@H](C(=O)N[C@@H](CC(C)C)C(=O)O)[C@@H](C)O (H-RLYELLHGAGNHAAGILTL-OH)	5.75	6.38
CC[C@H](C)[C@H](NC(=O)CNC(=O)[C@H](C)NC(=O)[C@H](C)NC(=O)[C@H](Cc1cnc[nH]1)NC(=O)[C@H](CC(N)=O)NC(=O)CNC(=O)[C@H](C)NC(=O)CNC(=O)[C@H](Cc1cnc[nH]1)NC(=O)[C@H](CC(C)C)NC(=O)[C@H](CC(C)C)NC(=O)[C@H](CCC(=O)O)NC(=O)[C@H](Cc1ccc(O)cc1)NC(=O)[C@H](CC(C)C)NC(=O)[C@H](CCCNC(=N)N)NC(=O)[C@H](CS)NC(=O)[C@@H](N)CO)C(=O)N[C@@H](CC(C)C)C(=O)N[C@H](C(=O)N[C@@H](CC(C)C)C(=O)O)[C@@H](C)O (H-SCRLYELLHGAGNHAAGILTL-OH)	5.99	6.35
